≈ marks a conversion by molar mass, not a printed value. Where two headings read alike, the source gives them in different places. Residues, ends and D or L forms follow the SMILES beside them. *: point of attachment. βNA = c1ccc2cc(N*)ccc2c1
How the values were obtained:
[1] = ref supplement refs 1-13 as given per antibiotic; cited from earlier work
[2] = in vitro; details: Klebsiella pneumoniae, not told
[3] = in vitro; details: Klebsiella pneumoniae, not told; remark: listed apart in the source
[4] = test system: E. cloacae isolate (EC3800); assay: agar MIC according to CLSI guidelines; assay type: cell-based, Enterobacter cloacae
[5] = test system: K. pneumoniae isolate (KP3800); assay: agar MIC according to CLSI guidelines; assay type: cell-based, Klebsiella pneumoniae
[6] = test system: E. cloacae complex; details: cited from earlier work
[7] = critically ill patients; ref supplement refs 1-13 as given per antibiotic; cited from earlier work
[8] = test system: polymyxin-susceptible E. cloacae isolate EC3800; details: for OM permeability of imipenem, fold faster than meropenem: E. cloacae EC3800
[9] = test system: P. aeruginosa; details: not told; cited from earlier work
[10] = test system: polymyxin-resistant K. pneumoniae isolate KP3800; details: for OM permeability coefficient, fold smaller in KP3800 compared to EC3800: KP3800 vs EC3800
[11] = basic group carrying the positive charge; no reference given; cited from earlier work
[12] = in vitro; details: Enterobacter cloacae, not told, pH 7, Avg OM permeability coefficient (nm/s) ± SD
[13] = pH 7, Avg OM permeability coefficient (nm/s) ± SD, Cassette K. pneumoniae, efflux: with 25 mg/liter PAβN, two biological replicates
[14] = pH 7, Avg OM permeability coefficient (nm/s) ± SD, Cassette K. pneumoniae, three biological replicates
[15] = pH 7, Avg OM permeability coefficient (nm/s) ± SD, Discrete K. pneumoniae, three biological replicates
[16] = Cassette E. cloacae, efflux: with 25 mg/liter PAβN, two biological replicates
[17] = Cassette E. cloacae, three biological replicates
[18] = Discrete E. cloacae, three biological replicates

For `C[C@H]1[C@H](NC(=O)/C(=N\OC(C)(C)C(=O)O)c2csc(N)n2)C(=O)N1S(=O)(=O)O` [Aztreonam, aztreonam], the “Fraction bound in plasma (%)” value [1] is given as 51.5%, the Papp [2] is given as 0.74 ×10⁻⁶ cm/s and the Papp [3, 13] is given as less than 0.3 ×10⁻⁶ cm/s. The Papp [3, 14] was less than 0.3 ×10⁻⁶ cm/s and the Papp [3, 15] was 0.864 ± 0.846 ×10⁻⁶ cm/s.
With `CO/N=C(\C(=O)N[C@@H]1C(=O)N2C(C(=O)[O-])=C(C[N+]3(C)CCCC3)CS[C@H]12)c1csc(N)n1` [Cefepime, cefepime] the MIC ([4]; Enterobacter cloacae) was 16 µg/mL (≈ 33.3 µM), the Papp [3, 13] was less than 0.3 ×10⁻⁶ cm/s and the Papp [3, 14] was less than 0.3 ×10⁻⁶ cm/s. It also gave a Papp [3, 15] of 1.36 ± 0.926 ×10⁻⁶ cm/s and an MIC ([5]; Klebsiella pneumoniae) of 128 µg/mL (≈ 266 µM).
For `CC(C)(O/N=C(\C(=O)N[C@@H]1C(=O)N2C(C(=O)[O-])=C(C[n+]3ccccc3)CS[C@H]12)c1csc(N)n1)C(=O)O` [Ceftazidime, ceftazidime], the permeability coefficients [6] is listed as 0.1 ×10⁻⁶ cm/s, the MIC ([4]; Enterobacter cloacae) is listed as 16 µg/mL (≈ 29.3 µM) and the Papp [3, 13] is listed as less than 0.3 ×10⁻⁶ cm/s. The Papp [3, 14] was less than 0.3 ×10⁻⁶ cm/s, the Papp [3, 15] was less than 0.3 ×10⁻⁶ cm/s and the Papp ([3]; pH 7, Outer membrane permeability coefficients (nm/s), KP3800, discrete assay, average ± SD, three replicates (Table S2)) was less than 0.3 ×10⁻⁶ cm/s. For the same compound, the Papp ([3]; pH 7, permeability coefficient, KP3800, degradation too slow to be reliably determined in intact bacteria, 'likely') was less than 0.3 ×10⁻⁶ cm/s, the “Mean Clearance” value [7] was 9.22 L/h and the MIC ([5]; Klebsiella pneumoniae) was 64 µg/mL (≈ 117 µM).
In the case of `C[C@@H](O)[C@H]1C(=O)N2C(C(=O)O)=C(SCCN=CN)C[C@H]12` [Imipenem, imipenem], the “OM permeability of imipenem, fold faster than meropenem” value [8] is reported as “at least 7 fold”, the “OM permeability of imipenem, fold faster than meropenem” value ([8]; listed as imipenem) is reported as roughly 7 fold and the “OM permeability of imipenem, fold faster than aztreonam” value ([8]; EC3800) is reported as ~2,000 fold. For the same compound, the “OM permeability of imipenem, fold faster than cefepime” value ([8]; EC3800) was 258 fold, the “Fraction bound in plasma (%)” value [1] was 9.1% and the “OM permeability of imipenem over meropenem, fold faster” value [9] was 2.74 fold. For the same compound, the MIC ([4]; Enterobacter cloacae) was 4 µg/mL (≈ 13.4 µM), the “OM permeability coefficient, fold smaller in KP3800 compared to EC3800” value [10] was “approximately 5 fold” and the Papp [3, 13] was 72.3 ± 12.4 ×10⁻⁶ cm/s. The Papp [3, 14] was 90.7 ± 6.57 ×10⁻⁶ cm/s, the Papp [3, 15] was 204 ×10⁻⁶ cm/s and the pKa2 [11] was 10.6. The “Mean Clearance” value [7] was 12.4 L/h, the Papp [12, 16] was 393 ×10⁻⁶ cm/s and the Papp [12, 17] was 577 ×10⁻⁶ cm/s. For the same compound, the Papp [12, 18] was 666 ×10⁻⁶ cm/s and the MIC ([5]; Klebsiella pneumoniae) was 128 µg/mL (≈ 428 µM).
With `C[C@@H](O)[C@H]1C(=O)N2C(C(=O)O)=C(S[C@@H]3CN[C@H](C(=O)N(C)C)C3)[C@H](C)[C@H]12` [Meropenem, meropenem] the MIC ([4]; Enterobacter cloacae) was 4 µg/mL (≈ 10.4 µM), the “OM permeability coefficient, fold smaller in KP3800 compared to EC3800” value [10] was roughly 10 fold and the Papp [3, 13] was 5.75 ± 2.17 ×10⁻⁶ cm/s. The Papp [3, 14] was 9.07 ± 0.689 ×10⁻⁶ cm/s, the Papp [3, 15] was 8.33 ± 0.917 ×10⁻⁶ cm/s and the pKa2 [11] was 8.3. For the same compound, the “Mean Clearance” value [7] was 10.4 L/h, the Papp [12, 16] was 40.2 ± 6.98 ×10⁻⁶ cm/s and the Papp [12, 17] was 84.3 ± 29.2 ×10⁻⁶ cm/s. The Papp [12, 18] was 72.9 ± 15.5 ×10⁻⁶ cm/s and the MIC ([5]; Klebsiella pneumoniae) was greater than 256 µg/mL.
With `N=C(N)NCCC[C@H](NC(=O)[C@@H](N)Cc1ccccc1)C(=O)Nc1ccc2ccccc2c1` [PAβN, phenylalanine-arginine β-naphthylamide] (H-Phe-Arg-βNA) the “effect of efflux pump inhibitor on OM permeability estimates of the β-lactams” value ([8]; EC3800, PAβN 25 mg/liter, cassette assay) was “did not significantly affect” and the “effect of efflux pump inhibitor on OM permeability estimates of the β-lactams” value ([10]; KP3800, PAβN 25 mg/liter, cassette assay) was “did not significantly affect”.
polymyxin showed an MIC ([4]; EC3800) of 0.5 µg/mL and an MIC ([5]; KP3800) of 64 µg/mL.

From article PMC7018653 (mBio, 2020)
